Assay results: PMC5086919, “Antileukemic Scalarane Sesterterpenoids and Meroditerpenoid from Carteriospongia (Phyllospongia) sp., Induce Apoptosis via Dual Inhibitory Effects on Topoisomerase II and Hsp90” (Scientific Reports, 2016)
≈ marks a conversion by molar mass, not a printed value. Like-named read-outs stand apart in the source and are kept apart here.

What was measured:
[1] = tested on: U937 cells; assay: MTT antiproliferative assay, lymphoma U937 cells; conditions: Homo sapiens, U-937, 72 h, read-out: IC50, cytotoxicity, Lymphoma U937
[2] = tested on: LNCaP cells; assay: MTT antiproliferative assay, prostate cancer LNCaP cells; conditions: Homo sapiens, 72 h
Description: (§2) Several cancer cell lines including leukemia K562, Molt 4, and HL 60 cells, prostate cancer LNCaP cells, colon cancer DLD-1 cells and breast cancer T-47D cells were used to evaluate the antiproliferative activity.
(§3) The cell lines were obtained from the American Type Culture Collection (ATCC, Manassas, VA, USA). […] Dimethyl sulfoxide (DMSO), 3-(4,5-dimethylthiazol-2-yl)-2,5-diphenyl-tetrazolium bromide (MTT) and all other chemicals were purchased from Sigma-Aldrich (St. Louis, MO, USA).

[3] = tested on: DLD-1 cells; assay: MTT antiproliferative assay, colon cancer DLD-1 cells; conditions: Homo sapiens, DLD-1, 72 h, read-out: IC50, cytotoxicity, Colon DLD-1
Description: as §2, §3

[4] = tested on: T-47D cells; assay: MTT antiproliferative assay, breast cancer T-47D cells; conditions: Homo sapiens, T47D, 72 h, read-out: IC50, cytotoxicity, Breast T-47D
Description: as §2, §3

[5] = tested on: HL 60 cells; assay: MTT antiproliferative assay, leukemia HL 60 cells; conditions: Homo sapiens, HL-60, 72 h, read-out: IC50, cytotoxicity, Leukemia HL 60
Description: as §2, §3

[6] = tested on: Molt 4 cells; assay: MMP disruption, JC-1 staining flow cytometry; format: cell-based, human; conditions: 0, 0.0625, 0.125 and 0.25 μg/mL, 24 h
Procedure: These assays were performed as described previously. […] In brief, the treated cells were labeled with a specific fluorescent dye for 30 min. After labeling, cells were washed with PBS and resuspended in PBS at a concentration of 1 × 10^6 cells/mL before analysis via flow cytometry.

[7] = tested on: Sup-T1 cells; assay: MTT antiproliferative assay, lymphoma Sup-T1 cells; conditions: Homo sapiens, SUP-T1, 72 h, read-out: IC50, cytotoxicity, Lymphoma Sup-T1
[8] = tested on: γH2AX in Molt 4 cells; assay: Western blot of γH2AX (DNA damage biomarker); format: cell-based, human; conditions: 0, 0.0625, 0.125 and 0.25 μg/mL, 24 h
Description: (§1) The ability of Topo II to generate DNA damage in the presence of Topo II-targeting agents led to the hypothesis that an important determinant of drug sensitivity was related to the overall level of Topo II[17]. […] Such findings encouraged us to evaluate the effect of the isolates on Topo II activity. In order to confirm whether the DNA damage-induced by the isolated sesterterpenoids involved the inhibition of Topo II activity, a cell-free DNA cleavage assay using an enzyme-mediated negatively supercoiled pHOT1 plasmid DNA was applied. […] These marine terpenoids suppressed Topo II activity, resulting in the inhibition of supercoiled DNA relaxation in a dose-dependent manner (Fig. 5A). […] To determine whether the apoptotic mechanism of these compounds affects γH2AX (as a biomarker of DNA damage) induction, Western blot analysis was employed to examine the activation of γH2AX.
Cell lysates were prepared by treating the cells for 30 min in RIPA lysis buffer, 1% Nonidet P-40, 0.5% sodium deoxycholate, 0.1% sodium dodecyl sulphate (SDS), 1 mM sodium orthovanadate, 100 μg/mL phenylmethylsulfonyl fluoride and 30 μg/mL aprotinin) (all chemicals were from Sigma)[38]. The lysates were centrifuged at 20,000 × g for 30 min, and the protein concentration in the supernatant was determined using a BCA protein assay kit (Pierce). Equal amounts of proteins were respectively separated by 7.5%, 10% or 12% of SDS-polyacrylamide gel electrophoresis and then were electrotransferred to a PVDF membrane. The membrane was blocked with a solution containing 5% non-fat dry milk TBST buffer (20 mM Tris-HCl, pH 7.4, 150 mM NaCl and 0.1% Tween 20) for 1 h and washed with TBST buffer. The protein expressions were monitored by immunoblotting using specific antibodies. These proteins were detected by an enhanced chemiluminescence kit (Pierce).

[9] = target: T1, human topoisomerase II (Homo sapiens, UniProt P11388); assay: Cell-free topoisomerase II DNA relaxation/cleavage assay with supercoiled pHOT1 plasmid DNA; format: biochemical; conditions: for inhibition at 0.08 µg/mL: 0.08 μg/mL; for inhibition at 0.08 µg/mL / inhibition at 0.312 µg/mL / inhibition at 1.25 µg/mL / inhibition at 5 µg/mL / inhibition at 20 µg/mL: compared with control supercoiled DNA; for inhibition at 0.312 µg/mL: 0.312 μg/mL; for inhibition at 1.25 µg/mL: 1.25 μg/mL; for inhibition at 5 µg/mL: 5 μg/mL; for inhibition at 20 µg/mL: 20 μg/mL
T1 construct: purchased Topogen
Description: as §1
The assay was performed as described previously. […] Reactions were terminated by adding 2 μL of 10% SDS to facilitate trapping the enzyme in a cleavage complex, followed by the addition of 2.5 μL of proteinase K (50 μg/mL) to digest the bound protein (incubated at 37 °C for 15 min) and finally by adding 0.1 volume of the sample loading dye. The DNA products were analyzed via electrophoresis through vertical 2% agarose gels at 2 voltage/cm in 0.5 × TAE buffer. Gels were stained with ethidium bromide and photographed using an Eagle Eye II system (Stratagene, La Jolla, CA, USA). The quantitative analysis of the DNA Topo II activity was performed as described previously.

[10] = tested on: Molt 4 cells; assay: MTT antiproliferative assay, leukemia Molt 4 cells; format: cell-based; conditions: Homo sapiens
[11] = tested on: Ca9-22 cells; assay: MTT antiproliferative assay, oral Ca9-22 cells; conditions: Homo sapiens, Ca9-22, 72 h, read-out: IC50, cytotoxicity, Oral Ca9-22
Description: as §2, §3

[12] = tested on: K562 cells; assay: MTT antiproliferative assay, leukemia K562 cells; conditions: Homo sapiens, K562, 72 h, read-out: IC50, cytotoxicity, Leukemia K562
Description: as §2, §3

[13] = tested on: Cal-27 cells; assay: MTT antiproliferative assay, oral Cal-27 cells; conditions: Homo sapiens, CAL-27, 72 h, read-out: IC50, cytotoxicity, Oral Cal-27
Description: as §2, §3

[14] = tested on: Molt 4 cells; assay: Annexin V/PI apoptosis assay; format: cell-based, human; conditions: 0, 0.0625, 0.125 and 0.25 μg/mL, 24 h, annexin-V/PI
Procedure: The externalization of phosphatidylserine (PS) and membrane integrity were quantified using an annexin V- FITC staining kit[72]. In brief, 10^6 cells were grown in 35 mm diameter plates and were labeled with annexin V-FITC (10 μg/mL) and PI (20 μg/mL) prior to harvesting. After labeling, all plates were washed with a binding buffer and harvested. Cells were resuspended in the binding buffer at a concentration of 2 × 10^5 cells/mL before analysis by flow cytometer FACS-Calibur (Becton-Dickinson, San Jose, CA, USA) and CellQuest software. Approximately 10,000 cells were counted for each determination.

[15] = tested on: human Molt 4 tumor xenograft; assay: Human leukemia Molt 4 tumor xenograft animal model; format: in vivo, immunodeficient athymic mice
Description: Compounds 1 and 2 induced apoptosis in several cancer cell lines; however, the amounts isolated were insufficient for further examination of their in vivo antitumor effect. On the other hand, the amount separated from 3 was sufficient to study the in vivo anti-tumor activity by evaluating its effect on tumor growth of human leukemia Molt 4 in xenograft animal model. Molt 4 (1 × 10^6) cells were inoculated subcutaneously at the right flank of female immunodeficient athymic mice. […] The average tumor size on day 33 in the control group was 404.63 mm^3, whereas the average tumor size in compound 3-treated group was 212.10 mm^3 (Fig. 6A).
Establishment of nude mice with xenografts was performed as described previously. Six-week-old […] immunodeficient athymic mice were purchased from the National Laboratory Animal and Research Center (Taipei, Taiwan). All of the animals were maintained under standard laboratory conditions (temperature 24–26 °C, 12–12 h dark-light circle) and fed with laboratory diet and water. This study was approved by the Animal Care and Treatment Committee of Kaohsiung Medical University (IACUC Permit Number 101136). All experiments were conducted in strict accordance with the recommendations in the Guide for the Care and Use of Laboratory Animals of the National Institutes of Health, and all efforts were made to minimize animal stress/distress. Molt 4 cells (1 × 10^6) resuspended in 0.2 mL PBS were injected s.c. into the right flank of each mouse, and tumor growth was monitored every day. Fourteen days after tumor cell injection, mice with confirmed tumor growth were randomly divided into two groups. Compound 3 (1.14 μg/g) was intraperitoneally administered to the treatment group, and the control group received solvent only. Compound 3 was administrated every other day for 33 days. Animals were sacrificed by carbon dioxide. Tumor size was measured three times a week using calipers and tumor volumes were calculated according to the standard formula: width^2 × length/2.

[16] = read-out: IC50, cytotoxicity, Prostate LNCaP (class symbol)
[17] = 72 h, read-out: IC50, cytotoxicity, Leukemia Molt 4

T1 sequence (P11388 whole entry): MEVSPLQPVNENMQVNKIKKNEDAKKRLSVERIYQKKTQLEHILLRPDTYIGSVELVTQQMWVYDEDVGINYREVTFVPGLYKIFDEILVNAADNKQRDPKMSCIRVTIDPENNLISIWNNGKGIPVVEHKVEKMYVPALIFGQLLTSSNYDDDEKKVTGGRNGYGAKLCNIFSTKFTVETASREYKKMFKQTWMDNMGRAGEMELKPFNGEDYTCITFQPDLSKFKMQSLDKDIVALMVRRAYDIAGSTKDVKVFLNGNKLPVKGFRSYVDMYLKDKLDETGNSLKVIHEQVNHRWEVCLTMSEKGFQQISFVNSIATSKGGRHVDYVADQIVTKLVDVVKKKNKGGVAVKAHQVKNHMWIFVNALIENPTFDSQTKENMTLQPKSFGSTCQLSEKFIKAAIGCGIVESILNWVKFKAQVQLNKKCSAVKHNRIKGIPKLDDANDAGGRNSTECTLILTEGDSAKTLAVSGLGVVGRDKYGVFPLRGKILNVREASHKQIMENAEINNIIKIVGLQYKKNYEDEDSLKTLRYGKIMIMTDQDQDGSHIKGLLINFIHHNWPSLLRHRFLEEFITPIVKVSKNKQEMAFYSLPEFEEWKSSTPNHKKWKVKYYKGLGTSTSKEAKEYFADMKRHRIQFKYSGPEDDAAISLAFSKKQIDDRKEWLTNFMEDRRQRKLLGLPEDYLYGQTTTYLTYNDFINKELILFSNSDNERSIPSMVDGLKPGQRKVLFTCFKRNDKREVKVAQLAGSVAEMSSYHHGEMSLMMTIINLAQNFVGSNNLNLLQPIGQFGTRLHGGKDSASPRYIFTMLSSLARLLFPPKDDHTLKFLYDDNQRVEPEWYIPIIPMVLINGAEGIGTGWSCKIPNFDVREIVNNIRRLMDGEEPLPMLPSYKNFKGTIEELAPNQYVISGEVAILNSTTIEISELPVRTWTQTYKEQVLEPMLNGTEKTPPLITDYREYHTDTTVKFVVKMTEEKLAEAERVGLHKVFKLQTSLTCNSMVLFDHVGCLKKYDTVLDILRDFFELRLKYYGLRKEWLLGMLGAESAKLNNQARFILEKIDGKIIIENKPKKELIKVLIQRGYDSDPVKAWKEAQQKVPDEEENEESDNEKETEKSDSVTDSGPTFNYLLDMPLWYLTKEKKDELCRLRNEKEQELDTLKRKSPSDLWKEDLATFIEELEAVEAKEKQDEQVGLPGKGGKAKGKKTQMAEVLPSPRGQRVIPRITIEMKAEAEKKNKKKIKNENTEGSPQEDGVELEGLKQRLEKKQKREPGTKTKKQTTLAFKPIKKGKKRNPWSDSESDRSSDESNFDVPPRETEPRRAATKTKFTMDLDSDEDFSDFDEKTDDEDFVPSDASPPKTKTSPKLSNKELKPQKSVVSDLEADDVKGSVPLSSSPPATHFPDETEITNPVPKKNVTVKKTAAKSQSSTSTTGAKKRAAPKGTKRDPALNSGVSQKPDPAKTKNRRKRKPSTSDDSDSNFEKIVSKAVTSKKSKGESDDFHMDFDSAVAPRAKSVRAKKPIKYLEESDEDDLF

| SMILES | IC50 [1] [µg/mL] | IC50 [2, 16] [µg/mL] | IC50 [3] [µg/mL] | IC50 [4] [µg/mL] | IC50 [5] [µg/mL] | mitochondrial membrane potential [6] | IC50 [7] [µg/mL] | expression of γH2AX [8] | inhibition at 0.08 µg/mL [9] [%] | inhibition at 0.312 µg/mL [9] [%] | inhibition at 1.25 µg/mL [9] [%] | inhibition at 5 µg/mL [9] [%] | inhibition at 20 µg/mL [9] [%] | IC50 [10, 17] [µg/mL] | IC50 [11] [µg/mL] | IC50 [12] [µg/mL] | IC50 [13] [µg/mL] | apoptotic population of Molt 4 cells [14] | also measured |
| --- | --- | --- | --- | --- | --- | --- | --- | --- | --- | --- | --- | --- | --- | --- | --- | --- | --- | --- | --- |
| CC[C@@H](O)CC(=O)O[C@@H]1C[C@@H]2[C@@]3(C)CCC[C@](C)(CC)[C@@H]3CC[C@@]2(C)[C@@H]2CC=C(C(C)=O)[C@H](C=O)[C@@]12C (relative stereo) [Compound 2, 12β-(3′β-hydroxy-pentanoyloxy)-20,24-dimethyl-24-oxo-scalara-16-en-25-al] | 0.61 (≈ 1.19 µM) | > 20 | 1.71 (≈ 3.32 µM) | 1.87 (≈ 3.63 µM) | 0.22 (≈ 0.427 µM) | disruption in mitochondrial membrane potential | 0.42 (≈ 0.816 µM) | significantly enhanced the expression of γH2AX in a dose-dependent manner | 12 | 23 | 36 | 90 | 99 | 0.3 | 1.48 (≈ 2.88 µM) | 0.35 (≈ 0.68 µM) | 3.17 (≈ 6.16 µM) | increase in the apoptotic population |  |
| CC(C)=CCC/C(C)=C/CC/C(C)=C/CC/C(C)=C/CC1=CC(=O)C=CC1=O [Compound 3, 2-tetraprenil-1,4-benzochinone] | 0.65 (≈ 1.71 µM) | > 20 | 15.4 (≈ 40.5 µM) | 1.06 (≈ 2.79 µM) | 0.42 (≈ 1.1 µM) | disruption in mitochondrial membrane potential | 0.33 (≈ 0.867 µM) | activation of DNA damage was not observed | 7 | 13 | 28 | 90 | 98 | 0.34 | 0.97 (≈ 2.55 µM) | 0.7 (≈ 1.84 µM) | 0.51 (≈ 1.34 µM) | increase in the apoptotic population | IC50 ([9]; cell-free system, read-out: IC50, inhibition of topo II activities (converted)): 1.13 µM; mice body weights versus control group ([15]; 1.14 μg/g intraperitoneal, 33 days): no significant difference; average tumor size on day 33 ([15]; 1.14 μg/g intraperitoneal, every other day, 33 days): 212.10 mm^3; suppression of the volume of xenograft tumor growth compared with the control ([15]; Molt 4 xenograft): 47.58% |
| C=CCNC1=C2C[C@@H](C)C[C@H](OC)[C@H](O)[C@@H](C)/C=C(\C)[C@H](OC(N)=O)[C@@H](OC)/C=C\C=C(/C)C(=O)NC(=CC1=O)C2=O [Compound 17-AAG, 17-allylamine-17-demethoxygeldanamycin, reference compound] |  |  |  |  |  |  |  |  |  |  |  |  |  |  |  |  |  |  | IC50 ([10]; 24 h, molar value in brackets, read-out: IC50, suppression in cell growth, Molt 4): 7.2 µM; IC50 ([10]; 24 h, read-out: IC50, suppression in cell growth, Molt 4): 4.2 µg/mL |
| COc1cccc2c1C(=O)c1c(O)c3c(c(O)c1C2=O)C[C@@](O)(C(=O)CO)C[C@@H]3O[C@H]1C[C@H](N)[C@H](O)[C@H](C)O1 [Doxorubicin, reference compound] | 0.21 (≈ 0.386 µM) |  | 1.28 (≈ 2.35 µM) | 0.08 (≈ 0.147 µM) | 0.02 (≈ 0.0368 µM) |  | 0.02 (≈ 0.0368 µM) |  |  |  |  |  |  | 0.01 | 0.05 (≈ 0.092 µM) | 0.2 (≈ 0.368 µM) | 0.01 (≈ 0.0184 µM) |  | IC50 ([2]; read-out: IC50, cytotoxicity, Prostate LNCaP): 2.47 µg/mL (≈ 4.54 µM) |
| COc1cc([C@@H]2c3cc4c(cc3[C@@H](O[C@@H]3O[C@@H]5CO[C@@H](C)O[C@H]5[C@H](O)[C@H]3O)[C@H]3COC(=O)[C@H]23)OCO4)cc(OC)c1O [etoposide, reference compound] |  |  |  |  |  |  |  |  |  |  |  |  |  |  |  |  |  |  | DNA product with topo II poison ([9]; 500 μM, positive control, Lane 16): linear DNA strand was observed |
